The source of these data is patent US12171233B1, “Ethyl {[N′-(3-chlorophenyl)-N-(2,4-dichlorobenzoyl) carbamimidoyl]sulfanyl}acetate as an eco-friendly insecticidal agent against Spodoptera littoralis (Boisd.)” (priority 2023, dated 2024).

≈ marks a conversion by molar mass, not a printed value. Like-named read-outs stand apart in the source and are kept apart here.

In this data set the test system is Spodoptera littoralis larvae (2nd and 4th instar). The data set is described as follows: Insecticidal bioassay screening (castor leaf dip). The class given is in vivo. As to conditions: for LC50 (ppm) at 95% / LC90 (ppm) at 95%: after 72 h of treatment; for Toxicity index %: Diflubenzuron LC50 / compound LC50 x 100; for LC50: foliar. Here is the method: In this experiment, castor leaves are immersed in each of the previously prepared concentrations of the components for 10 seconds and then left to dry for 60 minutes. Larvae of the second and fourth instars of each checked strain are prepared with treated leaves in gauze-covered glass containers for 72 hrs. An untreated control is made in which leaves are dipped in triton x-100 and distilled water only. Then the preserved leaves were removed & fresh, untreated leaves were provided for 72 hours. Three replicates (10 larvae each) were checked for each concentration. Daily inspection was carried out for all treatments and mortality percentages were recorded 3 days (72 hours) after treatment. The average mortality percentage was corrected employing Abbott's formula. The corrected mortality rate for each of the previously synthesized compounds is statistically calculated according to Finney (1970). Through this rate, the corresponding concentration test lines (LDP lines) are assessed. Fifty and ninety percent mortality are determined, and the regression values for the checked products were previously evaluated.

Setting [1] is: 2nd instar larvae of S. littoralis.
[2] abbreviates: 4th instar larvae of S. littoralis.

With `O=C(NC(=S)Nc1cccc(Cl)c1)c1ccc(Cl)cc1Cl` [Compound 1, 2,4-dichloro-N-[(3-chlorophenyl)carbamothioyl]benzamide], the “LC50 (ppm) at 95%” value stood at 211.4 ppm under setting [1] and 472.3 ppm under setting [2]. In addition, the “LC90 (ppm) at 95%” value is, setting by setting: under setting [1], 1913.2 ppm; under setting [2], 4322.7 ppm. Also, the Toxicity index % is 21.1% (2nd instar larvae) and 30.5% (4th instar larvae).

In general, LC50 refers to the concentration lethal to half of the exposed cells or organisms. Take `CCOC(=O)CS/C(=N\c1cccc(Cl)c1)NC(=O)c1ccc(Cl)cc1Cl` [Compound 2, Ethyl {[N′-(3-chlorophenyl)-N-(2,4-dichlorobenzoyl)carbamimidoyl]sulfanyl}acetate]: the “LC50 (ppm) at 95%” value runs as follows: under setting [1], “about 211.4 ppm”; under setting [2], “about 472.3 ppm”. Moreover, for the setting “S. littoralis larvae versus normal larvae (control)”, the “effect on larval morphology (FIGS. 1A-1B)” value is “Morphological malformations”. Also, the “activity against Spodoptera littoralis (in words)” value (compared with reference insecticide Diflubenzuron) was “active against Spodoptera littoralis”. In addition, the LC50 (against Spodoptera littoralis under laboratory conditions (instar not given), read-out: LC50) amounted to 211 µg/mL.

With `O=C(NC(=O)c1c(F)cccc1F)Nc1ccc(Cl)cc1` [Diflubenzuron, reference compound], the “LC50 (ppm) at 95%” value was 45.20 ppm under setting [1] and 144.05 ppm under setting [2]. The “LC90 (ppm) at 95%” value was found to be 520.0 ppm under setting [1] and 1540.5 ppm under setting [2]. Also, the Toxicity index % is, setting by setting: (2nd instar larvae) 100%; (4th instar larvae) 100%. For the setting “Spodoptera littoralis”, this molecule registered a median lethal concentration (LC50) of 45.2 µg/mL (≈ 145 µM).
